What was measured:
Conditions in all cases: 72 h
[1] = test system: Caco-2; assay: cell viability relative to DMSO; higher = less toxic
[2] = test system: Calu-3; assay: as above
[3] = test system: HepG2; assay: as above
[4] = test system: U2OS; assay: as above
[5] = test system: Vero E6; assay: as above
[6] = test system: Caco-2; assay: relative viability EC50 (midpoint between 100% and the lowest measured viability); higher = less toxic
[7] = test system: Calu-3; assay: as above
[8] = test system: HepG2; assay: as above
[9] = test system: U2OS; assay: as above
[10] = test system: Vero E6; assay: as above
[11] = test system: Caco-2; assay: drug sensitivity score (DSS) for viability; higher = more toxic; extreme values may be limits of the assay
[12] = test system: Calu-3; assay: as above
[13] = test system: HepG2; assay: as above
[14] = test system: U2OS; assay: as above
[15] = test system: Vero E6; assay: as above

Compound	cell viability ([1]; 1 nM) [%]	cell viability ([1]; 10 nM) [%]	cell viability ([1]; 100 nM) [%]	cell viability ([1]; 1000 nM) [%]	cell viability ([1]; 10000 nM) [%]	cell viability ([2]; 1 nM) [%]	cell viability ([2]; 10 nM) [%]	cell viability ([2]; 100 nM) [%]	cell viability ([2]; 1000 nM) [%]	cell viability ([2]; 10000 nM) [%]	cell viability ([3]; 1 nM) [%]	cell viability ([3]; 10 nM) [%]	cell viability ([3]; 100 nM) [%]	cell viability ([3]; 1000 nM) [%]	cell viability ([3]; 10000 nM) [%]	cell viability ([4]; 1 nM) [%]	cell viability ([4]; 10 nM) [%]	cell viability ([4]; 100 nM) [%]	cell viability ([4]; 1000 nM) [%]	cell viability ([4]; 10000 nM) [%]	cell viability ([5]; 1 nM) [%]	cell viability ([5]; 10 nM) [%]	cell viability ([5]; 100 nM) [%]	cell viability ([5]; 1000 nM) [%]	cell viability ([5]; 10000 nM) [%]	relative viability EC50 [6] [µM]	relative viability EC50 [7] [µM]	relative viability EC50 [8] [µM]	relative viability EC50 [9] [µM]	relative viability EC50 [10] [µM]	drug sensitivity score [11]	drug sensitivity score [12]	drug sensitivity score [13]	drug sensitivity score [14]	drug sensitivity score [15]
C[C@H](CCC(=O)O)[C@H]1CC[C@H]2[C@@H]3CC[C@@H]4C[C@H](O)CC[C@]4(C)[C@H]3C[C@H](O)[C@]12C [deoxycholic-acid]	102	97.5	98.5	105	90	103	93.9	103	102	102	105	112	90.9	102	97.5	96.8	99.2	98.7	99.8	98.2	99.5	103	102	106	101	> 10	> 10	> 10	> 10	> 10	0	0	0	0	0
C[C@@H](CN1CC(=O)NC(=O)C1)N1CC(=O)NC(=O)C1 [dexrazoxane]	89.3	103	90.4	105	90.3	104	92.2	95.1	96.9	101	93.9	106	98.2	92.2	100	96.9	109	96.7	102	98.6	105	101	103	93.8	99.7	> 10	> 10	> 10	> 10	> 10	0	0	0	0	0
O[C@H]([C@H](O)[C@@H]1CO1)[C@H]1CO1 [dianhydrogalactitol]	97.4	95.8	101	104	95.7	103	107	99.3	95.4	94.2	99.4	101	104	90.8	91.1	99.1	104	97.2	100	100	97.6	96.9	93.2	97.2	99.9	> 10	> 10	> 10	> 10	> 10	0	0	0	0	0
NC[C@@H]1CC[C@@H](N)[C@@H](O[C@H]2[C@H](O)[C@@H](O[C@H]3O[C@H](CO)[C@@H](O)[C@H](N)[C@H]3O)[C@H](N)C[C@@H]2N)O1 [dibekacin]	96	94.4	101	93.5	106	101	91.9	114	101	95	96.5	101	89.1	102	94.5	104	97.9	101	98	104	103	103	98.1	101	101	> 10	> 10	> 10	> 10	> 10	0	0	0	0	0
CC(=O)OCC(=O)[C@@]1(OC(C)=O)[C@@H](C)C[C@H]2[C@@H]3C[C@H](F)C4=CC(=O)C=C[C@]4(C)[C@@]3(F)[C@@H](O)C[C@@]21C [diflorasone-diacetate]	110	106	99	98.4	87.6	105	95.9	93.1	100	101	82.6	90.4	87.9	97.8	95.2	102	96.9	95.9	96.5	89.9	104	106	105	90.7	98.1	> 10	> 10	> 10	> 10	> 10	0.2	0	0	0	0
